Results: article PMC9223764, “In Vitro Selection and Characterization of HIV-1 Variants with Increased Resistance to LP-40, Enfuvirtide-Based Lipopeptide Inhibitor” (International Journal of Molecular Sciences, 2022)
“And” between values parts separate entries of the source, which are not always exact repeats. Equal values may be shown once. Read-outs that look alike come from different tables or passages of the source. Where a SMILES comes first, the peptide text is derived from it. The star is where a group is joined. Palmitoyl = CCCCCCCCCCCCCCCC(=O)*

Experiments:
Format in all cases: cell-based
[1] = system: LP40-V2 pseudovirus (HIV-1 NL4-3 Env mutant)
Description: (§1) The infectivity of HIV Env mutants and the inhibitory activities of membrane fusion inhibitors on mutants in TZM-bl cells were measured using a single-cycle infection assay as described previously. Briefly, the HIV pseudovirus was packed using an Env-coding plasmid, and pSG3ΔEnv was co-transfected into HEK293T cells. pSG3ΔEnv encodes an Env-defective, luciferase-expressing HIV-1 genome. After the pseudoviruses were harvested and filtrated, the amount of pseudoviruses was fixed via P24 antigen, and their infectivity was determined in TZM-bl cells. In order to measure the inhibitory activities of the inhibitors, inhibitors diluted serially 3-fold were mixed with an equal volume of pseudoviruses, and then 100 µL 1 × 10^5/mL TZM-bl cells were added to the mixture and incubated at 37 °C with 5% CO2 for 48 h. After that, TZM-bl cells were lysed using reporter lysis buffer, and IC50 values were calculated according to luciferase activity measured by luciferase assay reagents and a luminescence counter (Promega, Madison, WI, USA).

[2] = system: HIV-1 NL4-3 pseudovirus (WT); conditions: for IC50: WT NL4-3, TZM-bl cells, 48 h, luciferase, triplicate, repeated three times
Description: as §1

[3] = system: HIV-1 NL4-3 gp41 A21T pseudovirus; conditions: Table 2; for IC50: A21T, TZM-bl cells, 48 h, luciferase, mean ± SD, triplicate, repeated three times
Description: (§2) The entry abilities of A15V, L57H, R68G, G86D, C87Y, E119G, and N140S were almost completely lost, corresponding to LP40-V6, LP40-V7, T20-V9, LP40-V3, LP40-V5, LP40-V4, and T20-V5, respectively, so it was determined that these mutation sites might be lethal mutations. […] The differences between the wild-type envelope proteins and serial mutant proteins in mediating membrane fusion were compared using a double-separated protein-based fusion experimental system. […] G20V, A21T, E119G, and Y127H had only an approximately 10% fusion capacity, and L33S, N42D, N42T, and N43S had less than 50% fusion capacity, but N140S had approximately 60% fusion capacity (Figure 6B). […] Among them, we selected the fusion ability of the sixth hour to evaluate the fusion activities of the mutant strains (Figure 6B).
(§3) Viral RNA was extracted from the supernatant, and, after reverse transcription, the cDNA was amplified using PCR. These amplified DNA were connected to the T-Easy vector and transformed to Trans 2-Blue Chemically Competent Cells. These sequences were determined via sequencing. The expression plasmids, which contained different HIV-1NL4-3 Env mutants, were constructed using DNA assembly (NEBuilder® HiFi DNA Assembly Master Mix). In brief, two primers were used to amplify Env, and the other two primers were used to amplify the vector fragment. The products of PCR were purified with a 20–25 bp overlap in the terminal of Env and the vector fragment Env and the vector fragment were added to the DNA assembly master mix at […] for 15 min and then transformed to Trans 2-Blue Chemically Competent Cells. Additionally, a single-point mutation was generated using double-stranded DNA templates and a selection of mutants with a restriction enzyme (DpnI) as described previously. The successful mutations were confirmed via sequencing.
as §1

[4] = system: HIV-1 NL4-3 gp41 G20V pseudovirus; conditions: Table 2; for IC50: G20V, TZM-bl cells, 48 h, luciferase, mean ± SD, triplicate, repeated three times
Description: as §2, §3, §1

[5] = system: HIV-1 NL4-3 gp41 N42D pseudovirus; conditions: Table 2; for IC50: N42D, TZM-bl cells, 48 h, luciferase, mean ± SD, triplicate, repeated three times
Description: as §2, §3, §1

[6] = system: HIV-1 NL4-3 gp41 N126K pseudovirus; conditions: Table 2; for IC50: N126K, TZM-bl cells, 48 h, luciferase, mean ± SD, triplicate, repeated three times
Description: as §2, §3, §1

[7] = system: HIV-1 NL4-3 gp41 A50V pseudovirus; conditions: Table 2; for IC50: A50V, TZM-bl cells, 48 h, luciferase, mean ± SD, triplicate, repeated three times
Description: as §2, §3, §1

[8] = system: HIV-1 NL4-3 gp41 V38A pseudovirus; conditions: Table 2; for IC50: V38A, TZM-bl cells, 48 h, luciferase, mean ± SD, triplicate, repeated three times
Description: as §2, §3, §1

[9] = system: HIV-1 NL4-3 gp41 S35P pseudovirus; conditions: Table 2; for IC50: S35P, TZM-bl cells, 48 h, luciferase, mean ± SD, triplicate, repeated three times
Description: as §2, §3, §1

[10] = system: HIV-1 NL4-3 gp41 V38T pseudovirus; conditions: Table 2; for IC50: V38T, TZM-bl cells, 48 h, luciferase, mean ± SD, triplicate, repeated three times
Description: as §2, §3, §1

[11] = system: HIV-1 NL4-3 gp41 A71V pseudovirus; conditions: Table 2; for IC50: A71V, TZM-bl cells, 48 h, luciferase, mean ± SD, triplicate, repeated three times
Description: as §2, §3, §1

CCCCCCCCCCCCCCCC(=O)NCCCC[C@H](NC(=O)[C@H](CC(=O)O)NC(=O)[C@H](CC(C)C)NC(=O)[C@H](CCC(=O)O)NC(=O)[C@H](CC(C)C)NC(=O)[C@H](CC(C)C)NC(=O)[C@H](CCC(=O)O)NC(=O)[C@H](CCC(N)=O)NC(=O)[C@H](CCC(=O)O)NC(=O)[C@H](CC(N)=O)NC(=O)[C@H](CCCCN)NC(=O)[C@H](CCC(=O)O)NC(=O)[C@H](CCC(N)=O)NC(=O)[C@H](CCC(N)=O)NC(=O)[C@H](CC(N)=O)NC(=O)[C@H](CCC(N)=O)NC(=O)[C@H](CO)NC(=O)[C@H](CCC(=O)O)NC(=O)[C@H](CCC(=O)O)NC(=O)[C@@H](NC(=O)[C@H](CC(C)C)NC(=O)[C@H](CO)NC(=O)[C@H](Cc1c[nH]cn1)NC(=O)[C@@H](NC(=O)[C@H](CC(C)C)NC(=O)[C@H](CO)NC(=O)[C@@H](NC(=O)[C@H](Cc1ccc(O)cc1)NC(C)=O)[C@@H](C)O)[C@@H](C)CC)[C@@H](C)CC)C(N)=O [LP-40] (Ac-YTSLIHSLIEESQNQQEKNEQELLELDK(Palmitoyl)-NH2)
IC50 ([1]; LP40-V2 (Env selected at LP-40 0.3 µM), TZM-bl cells, 48 h, luciferase, mean ± SD, triplicate, repeated three times): 374 ± 29.8 nM | Fold change in IC50 ([1]; LP40-V2 relative to WT NL4-3, Table 1): 12.59 fold | IC50 ([2]; Table 1, mean ± SD): 29.7 ± 4.52 nM | IC50 ([2]; Table 2, mean ± SD): 31.5 ± 10.4 nM | IC50 ([2]; Table 3, means): 27.3 nM | Fold change in IC50 ([2]; WT NL4-3 reference, Table 1): 1.00 fold | Fold change in IC50 ([3]; A21T relative to WT NL4-3): 0.85 fold | IC50 [3]: 26.8 ± 8.36 nM | Fold change in IC50 ([4]; G20V relative to WT NL4-3): 6.5 fold and 6.49 fold | IC50 [4]: 205 ± 47.2 nM | Fold change in IC50 ([5]; N42D relative to WT NL4-3): 3.46 fold | IC50 [5]: 109 ± 18.4 nM | Fold change in IC50 ([6]; N126K relative to WT NL4-3): 9.7 fold and 9.65 fold | IC50 [6]: 304 ± 50.5 nM | Fold change in IC50 ([7]; A50V relative to WT NL4-3): 1.87 fold | IC50 [7]: 58.8 ± 13.7 nM | Fold change in IC50 ([8]; V38A relative to WT NL4-3): 110.56 fold | IC50 [8]: 3490 ± 423 nM | Fold change in IC50 ([9]; S35P relative to WT NL4-3): 0.69 fold | IC50 [9]: 21.6 ± 5.15 nM | Fold change in IC50 ([10]; V38T relative to WT NL4-3): 46.03 fold | IC50 [10]: 1450 ± 237 nM | Fold change in IC50 ([11]; A71V relative to WT NL4-3): 1.37 fold | IC50 [11]: 43.2 ± 8.19 nM

Enfuvirtide
IC50 [3]: 58.9 ± 9.24 nM | IC50 [4]: 49.1 ± 10.9 nM | IC50 [5]: 164 ± 26.8 nM | IC50 [6]: 117 ± 37.4 nM | IC50 [7]: 162 ± 69.4 nM | IC50 [8]: 1540 ± 22 nM | IC50 [9]: 138 ± 10.6 nM | IC50 [10]: 991 ± 216 nM | IC50 [11]: 46.5 ± 12.5 nM
